Structures can show the parent of a compound that is named as a salt. Where two headings read alike, the source gives them in different places.
Legend:
[1] = target: T1, strychnine insensitive glycine binding site (NMDA receptor complex) (Rattus norvegicus, UniProt P35439); experiment: affinity for strychnine insensitive glycine binding site
T1 construct: from tissue

[2] = system: NMDA induced convulsions in mice; experiment: inhibition of NMDA induced convulsions in mice; format: in vivo; conditions: Mus musculus, dose to protect 50 % of the animals from NMDA (intracerebroventricular) convulsions
Description: In this test the ability of the compound to inhibit the generalized seizures induced by an intracerebroventricular injection of NMDA in mice was examined at a number of dose levels. […] This expressed as mg/kg is referred to as the ED50 value.

anaesthetised cats = experiment: adverse effects in anaesthetised cats; format: in vivo, cat; conditions: doses up to 24 mg/kg
Description: (§1) The compounds of the invention are essentially non toxic at therapeutically useful doses.

conscious dogs = experiment: adverse effects in conscious dogs; format: in vivo, dog; conditions: doses up to 24 mg/kg
Description: as §1

[3] = strychnine insensitive glycine binding site, read-out: pKi (converted)
[4] = intravenous, read-out: ED50 i.v

Row | Compound | Ki [1, 3] [nM] | also measured
1 | O=C(O)c1[nH]c2cc(Cl)cc(Cl)c2c1/C=C1/NC(=O)N(c2ccccc2)C1=O [Example 14, (E) 4,6Dichloro-3-(2.5-dioxo-1-phenyl-imidazolidin-4-ylidenemethyl)-1H-indole-2-carboxylic acid] | 74.1 | –
2 | CC(=O)Nc1ccc(N2NCC(=Cc3c(C(=O)O)[nH]c4cc(Cl)cc(Cl)c34)C2=O)cc1 [Example 18, 4.6-Dichloro-3-[5-oxo1-(4-acetylamino-phenyl)-pyrazolidin-4-ylidenemethyl]-1H-indole-2-carboxylic acid] | 20 | –
3 | O=C(O)c1[nH]c2cc(Cl)cc(Cl)c2c1/C=C1\CCCN(c2ccccc2)C1=O [Example 6, (E)4,6-dichloro-3-(2-oxo-1-phenyI-piperidin-3-ylidenemethyl)-1H-indole-2-carboxylic acid sodium salt] | 49 | ED50 [2, 4]: 0.09 mg/kg; ED50 ([2]; oral, read-out: ED50 po): 7.5 mg/kg
4 | CN1C/C(=C\c2c(C(=O)O)[nH]c3cc(Cl)cc(Cl)c23)C(=O)N1c1ccccc1 [Example 23, (E) 3[(2-methyl-5-oxo-1-phenyl)pyrazolidin-4-ylidenemethyl]-4,6-dichloro-1H-indole-2-carboxylic acid] | 34.7 | –
5 | O=C(O)c1[nH]c2cc(Cl)cc(Cl)c2c1/C=C1\CNN(c2cccc3ccccc23)C1=O [Example 34, (E) 4,6-dichloro-3(5-oxo-1(1-naphthyl)-pyrazolidin-4-ylidenemethyl)-1H-indole-2-carboxylic acid] | 49 | –
6 | O=C(O)c1[nH]c2cc(Cl)cc(Cl)c2c1/C=C1\CNN(c2ccccc2)C1=O [Example 8, (E) 4,6-dichloro-3-(5oxy-1-phenyl-pyrazolidin-4ylidenemethyl)-1H-indole-2-carboxylic acid sodium salt] | 10 | ED50 [2, 4]: 0.1 mg/kg; ED50 ([2]; oral, read-out: ED50 po): 1.7 mg/kg; adverse affects when administered (anaesthetised cats): no adverse affects; adverse affects when administered (conscious dogs): no adverse affects
7 | O=C(O)c1[nH]c2cc(Cl)cc(Cl)c2c1/C=C1\CC(=O)N(c2ccccc2)C1=O [Example 28, (E) 4,6dichloro-3-(2.5-dioxo-1-phenyl-pyrrolidin-3-ylidenemethyl)-1H-indole-2-carboxylic acid] | 41.7 | –
8 | Nc1ccc(N2NC/C(=C\c3c(C(=O)O)[nH]c4cc(Cl)cc(Cl)c34)C2=O)cc1 [Example 10, (E) 4,6dichloro-3-[(5-oxo-1-(4-aminophenyl))pyrazolidin-4-ylidenemethyl]-1H-indole-2-carboxylic acid hydrochloride salt] | 14.8 | ED50 [2, 4]: 0.1 mg/kg; ED50 ([2]; oral, read-out: ED50 po): 1.7 mg/kg
9 | O=C(O)c1[nH]c2cc(Cl)cc(Cl)c2c1C=C1CON(c2ccccc2)C1=O [Example 26, 4,6-Dichloro-3-(3-oxo-2-phenyl-isoxazolidin-4-ylidenemethyl)-1H-indole-2-carboxylic acid] | 75.9 | –
10 | NC(=O)Nc1ccc(N2NCC(=Cc3c(C(=O)O)[nH]c4cc(Cl)cc(Cl)c34)C2=O)cc1 [Example 20, 4,6-Dichloro-3-[5-oxo-1-(4-ureido-phenyl)-pyrazolidin-4-ylidenemethyl]-1H-indole-2-carboxylic acid] | 20.4 | –
11 | Nc1cccc(N2NC/C(=C\c3c(C(=O)O)[nH]c4cc(Cl)cc(Cl)c34)C2=O)c1 [Example 27, (E) 4,6dichloro-3[(5-oxo-1-(3-aminophenyl))pyrazolidin-4-ylidenemethyl]-1H-indole-2-carboxylic acid hydrochloride salt] | 20 | –
12 | O=C(O)c1[nH]c2cc(Cl)cc(Cl)c2c1/C=C1\NC(=O)N(c2ccccc2)C1=O [Example 12, (Z) 4,6-Dichloro-3-(2,5dioxo-1-phenyl-imidazolidin-4-ylidenemethyl)-l H-indole-2-carboxylic acid] | 37.2 | –
13 | O=C([O-])c1[nH]c2cc(Cl)cc(Cl)c2c1/C=C1\CCN(c2ccccc2)C1=O.[Na+] [Example 3, (E)4,6-dichloro-3-(2oxo-1-phenyl-pyrrolidin-3-ylidenemethyl) -1H-indole-2-carboxylic acid sodium salt] | – | ED50 [2, 4]: 0.08 mg/kg; ED50 ([2]; oral, read-out: ED50 po): 3.83 mg/kg; Ki [1]: 51.3 nM
14 | CS(=O)(=O)Nc1ccc(N2NCC(=Cc3c(C(=O)O)[nH]c4cc(Cl)cc(Cl)c34)C2=O)cc1 [Example 22, 4,6Dichloro-3-[1-(4-methylsulfamidophenyl)-5-oxo-pyrazolidin4-ylidenemrthyl]-1H-indole-2-carboxylic acid] | 21.9 | –

Source: US5760059A, “Indole derivatives” (Glaxo Wellcome SpA, priority 1993, dated 1998)
